Data as given in patent US10738024B2, “Compounds for treatment of angiogenesis-mediated diseases” (Indiana University Research and Technology Corporation, priority 2013, dated 2020).

What was measured:
HRECs = experiment: ALAMARBLUE proliferation assay in HRECs; format: cell-based, human; settings: for GI50: Homo sapiens, HREC, 50% growth inhibitory concentration, 48 hours, alamarBlue, read-out: GI50 HREC
Description: (§1) Particularly, in a 96-well clear bottom black plate, cells (2,500 cells per well) were seeded in a total volume of 100 μL EGM-2. After 24 hours of incubation of the plate at 37° C. and 5% CO2, a DMSO solution of synthetic cremastranone (1) or SH-11052 (2) was added in the concentration range of 0.5 nM to 500 μM (final DMSO concentration=1%). The plate was then further incubated for 48 hours before adding 11.1 μL of ALAMARBLUE® reagent to each well. Four hours after the addition of ALAMARBLUE®, fluorescence readings with excitation and emission wavelengths of 560 nm and 590 nm, respectively, were taken and the data were analyzed in GraphPad Prism software (v. 6.0). Dose response curves were generated and the GI50 values were calculated using the following equation: Y=100/(1+10^(X−Log GI50)).
(§2) For proliferation assays, cells (2500 per well) were seeded in a 96-well clear bottom black polystyrene plate in a total volume of 100 μL. HUVECs and HRECs were grown in EGM-2 and CSC+ media respectively, while 92-1 and Y79 cells were maintained in RPMI+10% FBS, penicillin/streptomycin and RB medium (IMDM+10% FBS+penicillin/streptomycin+10 μg/mL insulin+55 μM β-mercaptoethanol) respectively. After 24 hours of incubation of the plate at 37° C., the compounds were dissolved in DMSO and added in the concentration range of 500 μM to 0.5 nM. The plate was then incubated at 37° C. and 5% CO2 conditions for 48 hours before adding 11.1 μL of alamar blue reagent for each well. Four hours after the addition of ALAMARBLUE® reagent, fluorescence readings with excitation and emission wavelengths of 560 nm and 590 nm respectively were taken and the data was analyzed in GraphPad Prism software. The dose response curves were generated and the GI50 values were calculated using the equation: Y=100/(1+10^(X−Log GI50)) (Table 1).

[1] = tested on: 92-1 uveal melanoma cells; experiment: ALAMARBLUE proliferation assay in 92-1 uveal melanoma cells; format: cell-based; settings: 50% growth inhibitory concentration, 48 hours, alamarBlue
Description: as §2

HUVECs = experiment: ALAMARBLUE proliferation assay in HUVECs; format: cell-based, human; settings: for GI50: Homo sapiens, HUVEC, 48 h, 50% growth inhibitory concentration, alamarBlue
Description: as §1, §2

[2] = tested on: Y-79 retinoblastoma cells; experiment: ALAMARBLUE proliferation assay in Y-79 retinoblastoma cells; format: cell-based; settings: 50% growth inhibitory concentration, 48 hours
Description: as §2

Structure (SMILES)	GI50 (HRECs) [µM]	in vitro anti-proliferative activity in HRECs (HRECs; result in words, FIGS. 6B, 6D, 14)	GI50 [1] [µM]	GI50 (HUVECs) [µM]	in vitro anti-proliferative activity in HUVECs (HUVECs; result in words, FIGS. 6A, 6C)	GI50 [2] [µM]
COc1ccc(CC2COc3cc(O)c(OC)c(O)c3C2=O)cc1O (racemic) [Compound 1, 5,7-dihydroxy-3-(3-hydroxy-4-methoxybenzyl)-6-methoxychroman-4-one]	0.217	demonstrated in vitro anti-proliferative activity	9.8	0.377	demonstrated in vitro anti-proliferative activity	47
COc1ccc(/C=C/C(=O)c2c(O)cc(OC)c(OC)c2OC)cc1OCc1ccccc1 [Compound 3a, (E)-3-(3′-benzyloxy-4′-methoxyphenyl)-1-(6-hydroxy-2,3,4-trimethoxyphenyl) prop-2-en-1-one]	> 100	–	> 100	94	–	> 100
COc1cc(O)c(C(=O)/C=C/c2ccccc2)c(OC)c1OC [Compound 3b]	> 100	–	> 100	> 100	–	> 100
COc1ccc(CCC(=O)c2c(O)cc(OC)c(OC)c2OC)cc1O [Compound 4a, 1-(6-hydroxy-2,3,4-trimethoxyphenyl)-3-(3′-hydroxy-4′-methoxyphenyl) propan-1-one]	68	–	> 100	102	–	68
COc1ccc(CCC(=O)c2c(O)cc(OC)c(OC)c2OC)cc1OC [Compound 4c]	123	–	> 100	74	–	> 100
COc1ccc(CC2(CO)COc3cc(OC)c(OC)c(OC)c3C2=O)cc1O (stereo not drawn) [Compound 5, 3-(3′-hydroxy-4′-methoxybenzyl)-3-(hydroxymethyl)-5,6,7-trimethoxychroman-4-one]	> 100	–	> 100	> 100	–	> 100
COc1ccc(CC2COc3cc(OC)c(OC)c(OC)c3C2=O)cc1O (stereo not drawn) [Compound 6a, 3-(3′-hydroxy-4′-methoxybenzyl)-5,6,7-trimethoxychroman-4-one]	> 100	–	> 100	> 100	–	> 100
COc1cc2c(c(OC)c1OC)C(=O)C(Cc1ccccc1)CO2 (stereo not drawn) [Compound 6b, 3-benzyl-5,6,7-trimethoxychroman-4-one]	> 100	–	> 100	> 100	–	> 100
COC(=O)c1cc(CC2COc3cc(OC)c(OC)c(OC)c3C2=O)ccc1OC (stereo not drawn) [Compound 6d]	13	–	> 250	27	–	40
COc1cc2c(c(OC)c1OC)C(=O)C(Cc1ccc(O)c(O)c1)CO2 (stereo not drawn) [Compound 6e]	> 250	–	> 250	77	–	98
COc1ccc(CC2COc3cc(OC)c(OC)c(OC)c3C2=O)cc1C(=O)O (stereo not drawn) [Compound 6f]	131	–	> 250	92	–	> 250
C=C(Cc1ccc(OC)c(O)c1)C(=O)c1c(O)cc(OC)c(OC)c1OC [Compound 7, 1-(6-hydroxy-2,3,4-trimethoxyphenyl)-2-(3′-hydroxy-4′-methoxybenzyl)prop-2-en-1-one]	10	–	17	1.4	–	8
COc1ccc(CC2COc3cc(OC)c(OC)c(O)c3C2=O)cc1O (stereo not drawn) [Compound 8a]	> 100	–	> 100	44	–	> 100
COc1cc2c(c(O)c1OC)C(=O)C(Cc1ccccc1)CO2 (stereo not drawn) [Compound 8b, 3-benzyl-5-hydroxy-6,7-dimethoxychroman-4-one]	> 100	–	> 100	40	–	> 100
COc1ccc(CC2COc3cc(OC)c(O)c(O)c3C2=O)cc1OC(=O)c1ccccc1 (stereo not drawn) [Compound 8c]	> 100	–	51	> 100	–	> 50
COc1ccc(CC2COc3cc(O)c(O)c(O)c3C2=O)cc1O (stereo not drawn) [Compound 8d, 5,6,7-trihydroxy-3-(3-hydroxy-4-methoxybenzyl)chroman-4-one]	135	–	> 500	124	–	> 500
COc1ccc(Cc2coc3cc(OC)c(OC)c(OC)c3c2=O)cc1O [Compound 9a, 3-(3′-hydroxy-4′-methoxybenzyl)-5,6,7-trimethoxy-4H-chromen-4-one]	> 100	–	> 100	> 100	–	> 100
COc1c(O)cc2occ(Cc3ccccc3)c(=O)c2c1O [Compound 9b, 3-benzyl-5,7-dihydroxy-6-methoxy-4H-chromen-4-one]	> 100	–	> 100	> 100	–	> 100

Structure (SMILES)	GI50 (HRECs) [µM]	in vitro anti-proliferative activity in HRECs (HRECs; result in words, FIGS. 6B, 6D, 14)	GI50 [1] [µM]	GI50 (HUVECs) [µM]	in vitro anti-proliferative activity in HUVECs (HUVECs; result in words, FIGS. 6A, 6C)	GI50 [2] [µM]
COc1cc2c(c(OC)c1OC)C(=O)CCO2 [Compound 10a, 5,6,7-trimethoxychromanone]	> 100	–	> 500	> 100	–	> 500
COc1ccc(/C=C2\COc3cc(OC)c(OC)c(OC)c3C2=O)cc1O [Compound 11a, (E)-3-(3′-hydroxy-4′-methoxybenzylidene)-5,6,7-trimethoxychroman-4-one]	46	–	0.22	8	–	44
COc1ccc(/C=C2\COc3cc(OC)c(OC)c(OC)c3C2=O)cc1OCc1ccccc1 [Compound 11b, (E)-3-(3′-benzyloxy-4′-methoxybenzylidene)-5,6,7-trimethoxychroman-4-one]	6	–	–	4	–	15
C=CCOc1cc(/C=C2\COc3cc(OC)c(OC)c(OC)c3C2=O)ccc1OC [Compound 11c, (E)-3-(3′-allyloxy-4′-methoxybenzylidene)-5,6,7-trimethoxychroman-4-one]	4	–	3.2	11	–	3
COc1cc(/C=C2\COc3cc(OC)c(OC)c(OC)c3C2=O)ccc1OCc1ccccc1 [Compound 11d]	53	–	23	114	–	39
COc1cc(/C=C2\COc3cc(OC)c(OC)c(OC)c3C2=O)ccc1O [Compound 11e]	4	–	55	6	–	23
COc1cccc(/C=C2\COc3cc(OC)c(OC)c(OC)c3C2=O)n1 [Compound 11f]	17	–	25	16	–	25
C#CCOc1cc(/C=C2\COc3cc(OC)c(OC)c(OC)c3C2=O)ccc1OC [Compound 11g]	39	–	310	21	–	32
COc1ccc(/C=C2\COc3cc(OC)c(OC)c(OC)c3C2=O)cc1[N+](=O)[O-] [Compound 11h]	4	–	13	11	–	44
COc1cc2c(c(OC)c1OC)C(=O)/C(=C/c1ccc(OCc3ccccc3)cc1)CO2 [Compound 11i]	> 500	–	152	284	–	465
COc1cc2c(c(OC)c1OC)C(=O)/C(=C/c1ccc([N+](=O)[O-])cc1)CO2 [Compound 11j]	14	–	23	6	–	9
COc1ccc(/C=C2\COc3cc(OC)c(OC)c(OC)c3C2=O)cc1OCCN1CCCC1 [Compound 11k, (E)-5,6,7-trimethoxy-3-(4-methoxy-3-(2-(pyrrolidin-1-yl)ethoxy)benzylidene)chroman-4-one]	0.185	–	6	3.5	–	3.2
COc1ccc(/C=C2\COc3cc(OC)c(OC)c(OC)c3C2=O)cc1OCC(=O)OC(C)(C)C [Compound 11l]	> 500	–	> 500	27	–	21
COc1ccc(/C=C2\COc3cc(OC)c(OC)c(OC)c3C2=O)cc1OCC(=O)O [Compound 11m]	> 500	–	> 500	> 500	–	> 500
COc1cc2c(c(OC)c1OC)C(=O)/C(=C/c1ccc(O)c(O)c1)CO2 [Compound 11n]	6.4	–	13.7	4.1	–	13
COC(=O)c1cc(/C=C2\COc3cc(OC)c(OC)c(OC)c3C2=O)ccc1O [Compound 11o]	4.7	–	8.2	2	–	2.3
COc1cc2c(c(OC)c1OC)C(=O)/C(=C/c1ccc(O)c(F)c1)CO2 [Compound 11p]	19	–	30	9	–	22
